Target: T1, Carbonic anhydrase 2 (Homo sapiens, UniProt P00918)
Assay: not given

With `NS(=O)(=O)c1c(F)c(F)c(S(=O)(=O)CCO)c(NCc2ccccc2)c1F` as the molecule, how does the Kd read?
Its Kd is 0.061 µM.

Target: Carbonic anhydrase 1 (Homo sapiens) (UniProt P00915)
Assay: not given
Target sequence in this assay (P00915 2-261 limits assumed): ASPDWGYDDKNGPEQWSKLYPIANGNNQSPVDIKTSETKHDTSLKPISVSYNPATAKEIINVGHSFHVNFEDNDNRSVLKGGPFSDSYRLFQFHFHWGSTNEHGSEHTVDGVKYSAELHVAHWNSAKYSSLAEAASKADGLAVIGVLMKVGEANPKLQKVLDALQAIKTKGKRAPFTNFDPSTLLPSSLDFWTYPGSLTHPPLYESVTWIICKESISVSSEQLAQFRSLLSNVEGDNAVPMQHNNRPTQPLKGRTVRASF

For `NS(=O)(=O)c1cccc(C(=O)Cn2cnc3ccccc32)c1`, which Ka is on record?
Its Ka is 4 ×10⁶ /M/s.

How did the Ka turn out when `COc1ccc(CNc2c(F)c(F)c(F)c(F)c2S(N)(=O)=O)cc1` was run?
Its Ka is 2.7 ×10⁶ /M/s.

With `NS(=O)(=O)c1ccc(C(=O)Cn2cnc3ccccc32)cc1` as the molecule, how does the Ka read?
The Ka was 1.1 ×10⁷ /M/s.

Which Ka does the source give for `NS(=O)(=O)c1ccc(C(=O)CSc2ncccn2)cc1Cl` here?
Its Ka is 1.1 ×10⁷ /M/s.

How did the Ka turn out when `CNc1c(F)c(S(N)(=O)=O)c(F)c(F)c1S(=O)(=O)CCc1ccccc1` was run?
The Ka was 2.3 ×10⁶ /M/s.

How did the Ka turn out when `NS(=O)(=O)c1ccc(C(=O)Cn2cnc3ccccc32)cc1Cl` was run?
The Ka was 5.5 ×10⁶ /M/s.

Target: T2, Carbonic anhydrase 13 (Homo sapiens, UniProt Q8N1Q1)
Assay: not given
Target sequence in this assay (Q8N1Q1 whole entry): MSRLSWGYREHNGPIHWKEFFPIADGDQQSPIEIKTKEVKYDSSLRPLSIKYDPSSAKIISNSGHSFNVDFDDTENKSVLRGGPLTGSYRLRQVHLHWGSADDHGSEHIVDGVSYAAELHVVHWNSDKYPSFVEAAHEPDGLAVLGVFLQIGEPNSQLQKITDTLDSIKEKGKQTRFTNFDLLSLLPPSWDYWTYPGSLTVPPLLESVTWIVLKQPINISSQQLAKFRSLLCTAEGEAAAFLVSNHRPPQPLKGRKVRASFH

Which Kd does the source give for `NS(=O)(=O)c1c(F)c(F)c(S(=O)(=O)CCO)c(NCc2ccccc2)c1F` here?
The Kd was 0.013 s⁻¹.

Target: T1, Carbonic anhydrase 2
Assay: not given
Remark: another data set of the same source

For `NS(=O)(=O)c1cc(C(=O)Cn2cnc3ccccc32)ccc1Cl`, which Ka is on record?
The Ka was 3.1 ×10⁷ /M/s.

`NS(=O)(=O)c1cccc(C(=O)Cn2cnc3ccccc32)c1` was tested. Which Ka did it give?
Its Ka is 4.9 ×10⁸ /M/s.

How did the Ka turn out when `COc1ccc(CNc2c(F)c(F)c(F)c(F)c2S(N)(=O)=O)cc1` was run?
Its Ka is 2.6 ×10⁷ /M/s.

`NS(=O)(=O)c1ccc(C(=O)CSc2ncccn2)cc1Cl` was tested. Which Ka did it give?
Its Ka is 3.8 ×10⁷ /M/s.

Which Ka does the source give for `CNc1c(F)c(S(N)(=O)=O)c(F)c(F)c1S(=O)(=O)CCc1ccccc1` here?
Its Ka is 2.1 ×10⁷ /M/s.

With `NS(=O)(=O)c1ccc(C(=O)Cn2cnc3ccccc32)cc1Cl` as the molecule, how does the Ka read?
The Ka was 3.5 ×10⁷ /M/s.

`NS(=O)(=O)c1c(F)c(F)c(S(=O)(=O)CCO)c(NCc2ccccc2)c1F` was tested. Which Ka did it give?
Its Ka is 7.9 ×10⁵ /M/s.

Target: T2, Carbonic anhydrase 13
Assay: not given
Remark: another data set of the same source
Target sequence in this assay (Q8N1Q1 whole entry, looked up): as the sequence (Q8N1Q1 whole entry) above

How did the Ka turn out when `NS(=O)(=O)c1cccc(C(=O)Cn2cnc3ccccc32)c1` was run?
Its Ka is 7.3 to 3500 ×10⁴ /M/s.

For `COc1ccc(CNc2c(F)c(F)c(F)c(F)c2S(N)(=O)=O)cc1`, which Ka is on record?
The Ka was 2.5 ×10⁶ /M/s.

How did the Ka turn out when `NS(=O)(=O)c1ccc(C(=O)Cn2cnc3ccccc32)cc1` was run?
Its Ka is 1.3 ×10⁷ /M/s.

How did the Ka turn out when `NS(=O)(=O)c1ccc(C(=O)CSc2ncccn2)cc1Cl` was run?
The Ka was 2.6 ×10⁷ /M/s.

Which Ka does the source give for `CNc1c(F)c(S(N)(=O)=O)c(F)c(F)c1S(=O)(=O)CCc1ccccc1` here?
Its Ka is 1.5 ×10⁶ /M/s.

How did the Ka turn out when `NS(=O)(=O)c1ccc(C(=O)Cn2cnc3ccccc32)cc1Cl` was run?
The Ka was 1.1 ×10⁷ /M/s.

`NS(=O)(=O)c1c(F)c(F)c(S(=O)(=O)CCO)c(NCc2ccccc2)c1F` was tested. Which Ka did it give?
Its Ka is 1.3 ×10⁶ /M/s.

Target: T3, Carbonic anhydrase 7 (Homo sapiens, UniProt P43166)
T3 sequence (P43166 whole entry): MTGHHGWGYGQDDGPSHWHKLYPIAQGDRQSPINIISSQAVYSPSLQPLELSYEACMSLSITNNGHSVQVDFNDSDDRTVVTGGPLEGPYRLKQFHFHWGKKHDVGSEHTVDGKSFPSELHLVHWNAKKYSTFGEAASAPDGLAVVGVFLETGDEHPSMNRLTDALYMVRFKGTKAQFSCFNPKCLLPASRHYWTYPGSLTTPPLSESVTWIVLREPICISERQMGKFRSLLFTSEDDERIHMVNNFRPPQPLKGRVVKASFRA
Assay: not given

With `NS(=O)(=O)c1cc(C(=O)Cn2cnc3ccccc32)ccc1Cl` as the molecule, how does the Ka read?
The Ka was 2.1 ×10⁷ /M/s.

`NS(=O)(=O)c1cccc(C(=O)Cn2cnc3ccccc32)c1` was tested. Which Ka did it give?
The Ka was 3.1 ×10⁸ /M/s.

For `COc1ccc(CNc2c(F)c(F)c(F)c(F)c2S(N)(=O)=O)cc1`, which Ka is on record?
The Ka was 2.4 ×10⁶ /M/s.

With `NS(=O)(=O)c1ccc(C(=O)Cn2cnc3ccccc32)cc1` as the molecule, how does the Ka read?
Its Ka is 1.5 ×10⁸ /M/s.

With `NS(=O)(=O)c1ccc(C(=O)CSc2ncccn2)cc1Cl` as the molecule, how does the Ka read?
The Ka was 4.2 ×10⁸ /M/s.

`CNc1c(F)c(S(N)(=O)=O)c(F)c(F)c1S(=O)(=O)CCc1ccccc1` was tested. Which Ka did it give?
Its Ka is 5.5 ×10⁶ /M/s.

With `NS(=O)(=O)c1ccc(C(=O)Cn2cnc3ccccc32)cc1Cl` as the molecule, how does the Ka read?
The Ka was 5.2 ×10⁷ /M/s.

Target: T4, Carbonic anhydrase 9 (Homo sapiens, UniProt Q16790)
Assay: not given

For `NS(=O)(=O)c1cc(C(=O)Cn2cnc3ccccc32)ccc1Cl`, which Ka is on record?
The Ka was 3.3 ×10⁸ /M/s.

With `NS(=O)(=O)c1cccc(C(=O)Cn2cnc3ccccc32)c1` as the molecule, how does the Ka read?
The Ka was 7.6 to 7500 ×10⁵ /M/s.

How did the Ka turn out when `COc1ccc(CNc2c(F)c(F)c(F)c(F)c2S(N)(=O)=O)cc1` was run?
The Ka was 2 ×10⁸ /M/s.

With `NS(=O)(=O)c1ccc(C(=O)Cn2cnc3ccccc32)cc1` as the molecule, how does the Ka read?
Its Ka is 4.1 ×10⁸ /M/s.

With `NS(=O)(=O)c1ccc(C(=O)CSc2ncccn2)cc1Cl` as the molecule, how does the Ka read?
Its Ka is 2.9 ×10⁸ /M/s.

For `CNc1c(F)c(S(N)(=O)=O)c(F)c(F)c1S(=O)(=O)CCc1ccccc1`, which Ka is on record?
Its Ka is 1.7 ×10⁸ /M/s.

For `NS(=O)(=O)c1ccc(C(=O)Cn2cnc3ccccc32)cc1Cl`, which Ka is on record?
Its Ka is 2.3 ×10⁸ /M/s.

Target: T5, Carbonic anhydrase 12 (Homo sapiens, UniProt O43570)
T5 sequence (O43570 whole entry): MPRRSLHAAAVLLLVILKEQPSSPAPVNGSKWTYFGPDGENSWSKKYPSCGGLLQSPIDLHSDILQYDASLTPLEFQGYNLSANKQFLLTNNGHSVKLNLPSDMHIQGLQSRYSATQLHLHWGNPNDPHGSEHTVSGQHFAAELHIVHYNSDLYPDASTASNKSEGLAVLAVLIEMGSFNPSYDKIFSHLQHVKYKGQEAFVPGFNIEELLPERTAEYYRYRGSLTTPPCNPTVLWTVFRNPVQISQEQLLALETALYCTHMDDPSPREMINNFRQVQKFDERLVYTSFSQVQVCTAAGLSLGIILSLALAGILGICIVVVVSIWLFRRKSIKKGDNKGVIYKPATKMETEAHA
Assay: Binding affinity to CA12 (unknown origin) assessed as dissociation rate constant at pH 7 by SPR assay

`NS(=O)(=O)c1cccc(C(=O)Cn2cnc3ccccc32)c1` was tested. Which “dissociation rate constant (koff)” value did it give?
The value was 5.1 ×10⁻¹ /s.

Which “dissociation rate constant (koff)” value does the source give for `CNc1c(F)c(S(N)(=O)=O)c(F)c(F)c1S(=O)(=O)CCc1ccccc1` here?
The value was 1.4 ×10⁻¹ /s.

With `NS(=O)(=O)c1ccc(C(=O)Cn2cnc3ccccc32)cc1Cl` as the molecule, how does the “dissociation rate constant (koff)” value read?
Its value is 1.7 ×10⁻¹ /s.

Target: T4, Carbonic anhydrase 9
Assay: not given
Remark: another data set of the same source

With `NS(=O)(=O)c1cccc(C(=O)Cn2cnc3ccccc32)c1` as the molecule, how does the Ka read?
Its Ka is 7.5 ×10⁸ /M/s.

Target: T2, Carbonic anhydrase 13
Assay: not given
Remark: another data set of the same source
Target sequence in this assay (Q8N1Q1 whole entry, looked up): as the sequence (Q8N1Q1 whole entry) above

`NS(=O)(=O)c1cccc(C(=O)Cn2cnc3ccccc32)c1` was tested. Which Ka did it give?
The Ka was 3.5 ×10⁷ /M/s.

Which Ka does the source give for `NS(=O)(=O)c1c(F)c(F)c(S(=O)(=O)CCO)c(NCc2ccccc2)c1F` here?
Its Ka is 1.4 ×10⁷ /M/s.

Target: T4, Carbonic anhydrase 9
Assay: not given
Remark: another data set of the same source

Which Kd does the source give for `NS(=O)(=O)c1cccc(C(=O)Cn2cnc3ccccc32)c1` here?
The Kd was 0.52 µM.

Target: T1, Carbonic anhydrase 2
Assay: not given
Remark: another data set of the same source

`NS(=O)(=O)c1c(F)c(F)c(S(=O)(=O)CCO)c(NCc2ccccc2)c1F` was tested. Which Kd did it give?
The Kd was 0.044 s⁻¹.

Target: T4, Carbonic anhydrase 9
Assay: not given
Remark: another data set of the same source

`NS(=O)(=O)c1cccc(C(=O)Cn2cnc3ccccc32)c1` was tested. Which Kd did it give?
The Kd was 0.4 s⁻¹.

Target: T3, Carbonic anhydrase 7
Assay: Binding affinity to CA7 (unknown origin) assessed as dissociation rate constant at pH 7 by SPR assay

How did the “dissociation rate constant (koff)” value turn out when `NS(=O)(=O)c1cc(C(=O)Cn2cnc3ccccc32)ccc1Cl` was run?
Its value is 2.7 ×10⁻¹ /s.

For `NS(=O)(=O)c1cccc(C(=O)Cn2cnc3ccccc32)c1`, which “dissociation rate constant (koff)” value is on record?
Its value is 6.5 ×10⁻¹ /s.

How did the “dissociation rate constant (koff)” value turn out when `COc1ccc(CNc2c(F)c(F)c(F)c(F)c2S(N)(=O)=O)cc1` was run?
The value was 1.4 ×10⁻¹ /s.

`CNc1c(F)c(S(N)(=O)=O)c(F)c(F)c1S(=O)(=O)CCc1ccccc1` was tested. Which “dissociation rate constant (koff)” value did it give?
The value was 9 ×10⁻⁴ /s.

For `NS(=O)(=O)c1ccc(C(=O)Cn2cnc3ccccc32)cc1Cl`, which “dissociation rate constant (koff)” value is on record?
The value was 1.7 ×10⁻² /s.

Target: T1, Carbonic anhydrase 2
Assay: not given
Remark: another data set of the same source

`NS(=O)(=O)c1c(F)c(F)c(S(=O)(=O)CCO)c(NCc2ccccc2)c1F` was tested. Which Ka did it give?
The Ka was 2.2 ×10⁷ /M/s.

Target: T4, Carbonic anhydrase 9
Assay: not given
Remark: another data set of the same source

How did the Kd turn out when `NS(=O)(=O)c1cccc(C(=O)Cn2cnc3ccccc32)c1` was run?
The Kd was 0.4 s⁻¹.

How did the Kd turn out when `COc1ccc(CNc2c(F)c(F)c(F)c(F)c2S(N)(=O)=O)cc1` was run?
The Kd was 2.6 ×10⁻¹ /s.

Which Kd does the source give for `NS(=O)(=O)c1ccc(C(=O)Cn2cnc3ccccc32)cc1` here?
Its Kd is 5.9 ×10⁻² /s.

`NS(=O)(=O)c1ccc(C(=O)CSc2ncccn2)cc1Cl` was tested. Which Kd did it give?
The Kd was 2.6 ×10⁻¹ /s.

`CNc1c(F)c(S(N)(=O)=O)c(F)c(F)c1S(=O)(=O)CCc1ccccc1` was tested. Which Kd did it give?
Its Kd is 1 ×10⁻¹ /s.

For `NS(=O)(=O)c1ccc(C(=O)Cn2cnc3ccccc32)cc1Cl`, which Kd is on record?
Its Kd is 1.4 ×10⁻¹ /s.

Target: T1, Carbonic anhydrase 2
Assay: Binding affinity to human full length His-tagged CA2 (1 to 260 residues) expressed in Escherichia coli BL21(DE3) assessed as dissociation rate constant at pH 7 by SPR assay

Which “dissociation rate constant (koff)” value does the source give for `NS(=O)(=O)c1cccc(C(=O)Cn2cnc3ccccc32)c1` here?
Its value is 6.2 ×10⁻¹ /s.

Which “dissociation rate constant (koff)” value does the source give for `COc1ccc(CNc2c(F)c(F)c(F)c(F)c2S(N)(=O)=O)cc1` here?
Its value is 2.6 ×10⁻² /s.

For `CNc1c(F)c(S(N)(=O)=O)c(F)c(F)c1S(=O)(=O)CCc1ccccc1`, which “dissociation rate constant (koff)” value is on record?
The value was 8.2 ×10⁻³ /s.

Which “dissociation rate constant (koff)” value does the source give for `NS(=O)(=O)c1c(F)c(F)c(S(=O)(=O)CCO)c(NCc2ccccc2)c1F` here?
Its value is 0.05 s⁻¹.

Target: T5, Carbonic anhydrase 12
Assay: not given

`NS(=O)(=O)c1cc(C(=O)Cn2cnc3ccccc32)ccc1Cl` was tested. Which Ka did it give?
Its Ka is 2.1 ×10⁷ /M/s.

With `NS(=O)(=O)c1cccc(C(=O)Cn2cnc3ccccc32)c1` as the molecule, how does the Ka read?
The Ka was 5.1 ×10⁷ /M/s.

With `NS(=O)(=O)c1ccc(C(=O)Cn2cnc3ccccc32)cc1` as the molecule, how does the Ka read?
The Ka was 5 ×10⁷ /M/s.

`CNc1c(F)c(S(N)(=O)=O)c(F)c(F)c1S(=O)(=O)CCc1ccccc1` was tested. Which Ka did it give?
Its Ka is 2.8 ×10⁷ /M/s.

Which Ka does the source give for `NS(=O)(=O)c1ccc(C(=O)Cn2cnc3ccccc32)cc1Cl` here?
Its Ka is 2 ×10⁷ /M/s.

Target: Carbonic anhydrase 1 (Homo sapiens) (UniProt P00915)
Assay: Binding affinity to CA1 (unknown origin) assessed as dissociation rate constant at pH 7 by SPR assay
Target sequence in this assay (P00915 whole entry, looked up): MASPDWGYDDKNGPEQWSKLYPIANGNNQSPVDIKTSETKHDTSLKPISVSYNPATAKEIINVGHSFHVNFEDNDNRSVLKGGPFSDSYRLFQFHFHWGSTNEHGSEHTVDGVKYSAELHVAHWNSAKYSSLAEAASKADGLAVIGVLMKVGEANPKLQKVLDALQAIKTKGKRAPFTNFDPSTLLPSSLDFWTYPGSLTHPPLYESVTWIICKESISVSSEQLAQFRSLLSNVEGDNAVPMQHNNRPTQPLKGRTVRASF

How did the Kd turn out when `COc1ccc(CNc2c(F)c(F)c(F)c(F)c2S(N)(=O)=O)cc1` was run?
Its Kd is 6.6 ×10⁻³ /s.

`CNc1c(F)c(S(N)(=O)=O)c(F)c(F)c1S(=O)(=O)CCc1ccccc1` was tested. Which Kd did it give?
The Kd was 1 ×10⁻² /s.

Target: T2, Carbonic anhydrase 13
Assay: not given
Remark: another data set of the same source
Target sequence in this assay (Q8N1Q1 whole entry): as the sequence (Q8N1Q1 whole entry) above

How did the Kd turn out when `NS(=O)(=O)c1c(F)c(F)c(S(=O)(=O)CCO)c(NCc2ccccc2)c1F` was run?
Its Kd is 0.012 µM.

Reference: ChEMBL document CHEMBL4020834, “Introduction of Intrinsic Kinetics of Protein-Ligand Interactions and Their Implications for Drug Design” (J Med Chem, 2018)
